Test results published in patent US9157062B2, “Compositions and methods for promoting the generation of PDX1+ pancreatic cells” (President and Fellows of Harvard College, priority 2008, dated 2015).

Tests used:
[1] = system: HUES9-derived population (Pdx1+ cells); assay: High throughput screen for compounds increasing Pdx1+ cells; type: cell-based, human
Experimental: To generate a starting population, HUES cells were cultured on MEF feeder cells until 80-90% confluent, then treated with 25 ng/ml Wnt3a (R&D systems)+100 ng/ml Activin A (R&D systems) in advanced RPMI (A-RPMI, Invitrogen) supplemented with 1×L-Glu and 1×PS for 1 day, and then 100 ng/ml Activin A in A-RPMI supplemented with 1×L-Glu, 1×PS and 0.2% FBS (Invitrogen). Two days later, the media was changed to 50 ng/ml FGF10 (R&D systems)+0.25 μM KAAD-CYC (Calbiochem) in A-RPMI supplemented with 1×L-Glu, 1×PS and 2% FBS and maintained for additional 2 days. Cells were then transferred to 50 ng/ml FGF10+0.25 μM KAAD-CYC+2 μM RA (Sigma) in DMEM supplemented with 1×L-Glu, 1×PS, 1×B27 (Invitrogen) and cultured for an additional 4 days. ILV was obtained from Axxora, KAAD-CYC, TPB, PMA, BISI, Gö 6983, U0126 and PD98059 were obtained from Calbiochem and RA were obtained from Sigma.
For a high throughput screen, the starting material was hESCs (HUES9 cells) that were induced to pancreatic lineage using a slightly modified version of previously published protocols (D'Amour et al., 2006; Jiang et al., 2007), as described in Example 1. After 9 days of stepwise differentiation, a heterogeneous population of cells was generated containing cells that stained strongly, weakly or not at all with a Pdx1 antibody. Any cell that stained with the Pdx1 staining antibody was counted as Pdx1^+ cells regardless of staining intensity. Together, the Pdx1^+ cells comprises 5.1±1.8% of the total cell number.
To carry out the screen, the cells were trypsinized and plated on 804G-coated 384-well plates at 6000 cells/well using chemically defined media (DMEM supplemented with 2 mM L-Glu, 1×PS, 1×B27). After overnight incubation, compounds were screened by adding them to provide a final concentration of 10 μM, 1 μM and 0.1 μM. Four days later, the cells were stained with Pdx1 antibody and the plates were analyzed with Opera high content screening system (PerkinElmer).
The wells in which the percentage of Pdx1^+ cells is higher than present at day 1 and higher than day 5 treated with DMSO were selected as primary hits. Compounds that increase both the number and percentage of Pdx1^+ cells were picked as primary hits. Eleven compounds produced hits. (FIG. 7, Table I in FIG. 9 and formulas in FIG. 10). These eleven compounds were (−)-Indolactam V (FIG. 1c and Compound I in Table 1) boldine (Compound II), rotenone (Compound III), ethopropazine hydrochloride (Compound IV), cedrelone (Compound V), prieurianin (Compound VI), strophanthidin (Compound VII), trimeprazine tartrate (Compound VIII), terconazole (Compound IX), dimethisoquin hydrochloride (Compound X), harmine hydrochloride (Compound XI).
(§1) Cells were fixed with 10% formalin solution (Sigma) for 20 min at room temperature. Immunostaining was carried out with standard protocols. The following primary antibodies were used: goat anti-Pdx1 (1:500; R&D system); rabbit anti-FOXA2 (1:500; Upstate); rabbit anti-HNF6 (1:200; Santa Cruz Biotech); guinea pig anti-insulin (1:1000; Dako); rabbit anti-c-peptide (1:500; Linco); rabbit anti-amylase (1:200, Sigma); goat anti-HNF1β (1:100, Santa Cruz Biotech); and biotinylated DBA (1:400; Vector Lab). Alexa-488-, Alexa-555, and Alexa-647-conjugated donkey antibodies against mouse, rabbit, guinea pig and goat, and Pacific Blue conjugate-streptavidin (Invitrogen) were used at 1:300 dilution.

HUES8-derived population = assay: Ki67 staining for proliferation of Pdx1+ cells; type: cell-based, human; settings: 300 nM ILV, 4 days
Experimental: as §1
The results provided above are consistent with (1) ILV promotion of the proliferation or replication of the few pancreatic progenitors present in the starting population and with (2) differentiation induction of definitive endoderm by the compound. To distinguish between these possibilities, a HUES8-derived population was treated with 300 nM ILV for 4 days and analyzed for proliferation by staining with the antibody against Ki67 (marker for proliferating cells).

(−)-Indolactam V [ILV]
primary hits (increase both the number and percentage of Pdx1+ cells) ([1]; HUES9-derived cells, 10 μM, 1 μM and 0.1 μM, four days): hits | effective concentration ([1]; HUES9-derived cells, primary screen): ~1 µM | percentage of Pdx1+ cells ([1]; HUES9-derived population, 1 μM ILV for 4 days (day 5)): 10.9±0.9% | Pdx1+ cells expressing Ki67 (HUES8-derived population): no Pdx1^+ cells expressing Ki67
